According to publication PMC10638397, “Engineering sulfonate group donor regeneration systems to boost biosynthesis of sulfated compounds” (Nature Communications, 2023):

Assays:
Format in all cases: biochemical
PPK2^s.e = molecular target: T1, PPK2^s.e (Staphylococcus epidermidis, UniProt Q5HL47); assay: polyphosphate kinase assay, HPLC; conditions: polyP6, Mg2+, pH 7.5, 35 °C
T1 construct: gene SERP2140
T1 sequence (Q5HL47 1-474): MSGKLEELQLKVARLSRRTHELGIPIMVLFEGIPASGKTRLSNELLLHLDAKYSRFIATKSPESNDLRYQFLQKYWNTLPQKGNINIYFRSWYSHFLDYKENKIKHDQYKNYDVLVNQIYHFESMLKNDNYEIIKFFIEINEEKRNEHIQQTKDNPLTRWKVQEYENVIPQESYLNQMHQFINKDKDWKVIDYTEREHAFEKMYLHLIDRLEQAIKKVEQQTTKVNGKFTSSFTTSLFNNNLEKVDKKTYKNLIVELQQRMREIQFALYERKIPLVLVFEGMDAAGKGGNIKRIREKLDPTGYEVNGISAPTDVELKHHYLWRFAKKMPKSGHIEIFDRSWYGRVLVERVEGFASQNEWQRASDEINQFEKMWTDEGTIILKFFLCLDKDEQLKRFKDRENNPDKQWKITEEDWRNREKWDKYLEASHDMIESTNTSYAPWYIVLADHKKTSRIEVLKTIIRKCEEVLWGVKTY

PPK2A^p.a = molecular target: T2, PPK2A^p.a (Pseudomonas aeruginosa, UniProt Q9I6Z1); assay: polyphosphate kinase assay, HPLC; conditions: polyP6, Mg2+, pH 7.5, 35 °C
T2 construct: gene ppk2
T2 sequence (Q9I6Z1 2-357): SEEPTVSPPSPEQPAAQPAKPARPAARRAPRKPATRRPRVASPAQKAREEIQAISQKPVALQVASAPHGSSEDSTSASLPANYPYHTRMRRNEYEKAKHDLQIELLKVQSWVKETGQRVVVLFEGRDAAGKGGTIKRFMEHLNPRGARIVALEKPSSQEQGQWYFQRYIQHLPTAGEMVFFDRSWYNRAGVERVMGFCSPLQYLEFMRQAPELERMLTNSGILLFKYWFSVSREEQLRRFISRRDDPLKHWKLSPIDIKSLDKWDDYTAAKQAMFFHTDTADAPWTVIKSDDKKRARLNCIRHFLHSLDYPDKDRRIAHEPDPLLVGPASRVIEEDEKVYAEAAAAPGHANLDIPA

PPK2C^p.a = molecular target: T3, PPK2C^p.a (Pseudomonas aeruginosa, UniProt Q9HYF1); assay: polyphosphate kinase assay, HPLC; conditions: polyP6, Mg2+, pH 7.5, 35 °C
T3 construct: gene PA3455
T3 sequence (Q9HYF1 1-496): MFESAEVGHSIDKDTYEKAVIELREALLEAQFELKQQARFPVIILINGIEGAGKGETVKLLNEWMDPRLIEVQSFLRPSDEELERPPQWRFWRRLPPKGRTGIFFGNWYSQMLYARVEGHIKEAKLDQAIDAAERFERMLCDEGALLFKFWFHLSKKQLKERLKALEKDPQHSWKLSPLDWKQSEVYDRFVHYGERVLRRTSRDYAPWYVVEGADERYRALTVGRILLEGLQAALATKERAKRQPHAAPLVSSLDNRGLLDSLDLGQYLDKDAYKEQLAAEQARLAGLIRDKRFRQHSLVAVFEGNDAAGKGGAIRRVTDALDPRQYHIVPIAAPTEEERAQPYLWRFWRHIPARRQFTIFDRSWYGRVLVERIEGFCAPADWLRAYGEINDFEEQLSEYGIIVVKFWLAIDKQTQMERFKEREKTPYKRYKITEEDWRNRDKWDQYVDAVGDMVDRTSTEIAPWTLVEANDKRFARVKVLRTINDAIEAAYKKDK

PPK2^d.r = molecular target: T4, PPK2^d.r (Meiothermus ruber, UniProt M9XB82); assay: polyphosphate kinase assay, HPLC; conditions: polyP6, Mg2+, pH 7.5, 35 °C
T4 construct: gene K649_10090
T4 sequence (M9XB82 1-267): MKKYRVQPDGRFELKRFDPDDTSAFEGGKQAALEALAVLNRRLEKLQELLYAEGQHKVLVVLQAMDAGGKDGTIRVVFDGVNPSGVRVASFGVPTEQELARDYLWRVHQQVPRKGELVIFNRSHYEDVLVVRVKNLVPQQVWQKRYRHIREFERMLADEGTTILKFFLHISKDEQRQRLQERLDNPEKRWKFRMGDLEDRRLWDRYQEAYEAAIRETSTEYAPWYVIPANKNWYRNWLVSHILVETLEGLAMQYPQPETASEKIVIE

PPK2^r.p = molecular target: T5, PPK2^r.p (Ruegeria pomeroyi, UniProt Q5LX16); assay: polyphosphate kinase assay, HPLC; conditions: polyP6, Mg2+, pH 7.5, 35 °C
T5 construct: gene SPO0224
T5 sequence (Q5LX16 1-305): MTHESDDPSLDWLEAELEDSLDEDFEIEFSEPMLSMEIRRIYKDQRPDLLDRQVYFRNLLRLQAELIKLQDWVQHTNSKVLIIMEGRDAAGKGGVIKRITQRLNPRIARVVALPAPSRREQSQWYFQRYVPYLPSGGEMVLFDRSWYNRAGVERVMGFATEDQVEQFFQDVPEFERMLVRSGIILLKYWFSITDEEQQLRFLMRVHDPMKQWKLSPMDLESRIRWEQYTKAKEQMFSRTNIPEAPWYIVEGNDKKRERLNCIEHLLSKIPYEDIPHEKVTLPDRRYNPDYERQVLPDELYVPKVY

PPK2B^p.a = molecular target: T6, PPK2B^p.a (Pseudomonas aeruginosa, UniProt Q9I154); assay: polyphosphate kinase assay, HPLC; conditions: polyP6, Mg2+, pH 7.5, 35 °C
T6 construct: gene PA2428
T6 sequence (Q9I154 1-304): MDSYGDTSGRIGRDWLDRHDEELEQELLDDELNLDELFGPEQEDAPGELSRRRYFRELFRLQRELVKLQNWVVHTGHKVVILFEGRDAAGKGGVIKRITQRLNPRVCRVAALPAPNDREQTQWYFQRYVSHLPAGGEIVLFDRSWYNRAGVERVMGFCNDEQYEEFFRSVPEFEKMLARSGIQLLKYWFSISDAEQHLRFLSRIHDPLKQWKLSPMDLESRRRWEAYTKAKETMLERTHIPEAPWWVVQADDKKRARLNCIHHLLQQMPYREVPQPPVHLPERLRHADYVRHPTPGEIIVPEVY

[1] = tested on: T7, chondroitin 4-O-sulfotransferase (C4ST); assay: sulfotransferase kinetics, HPLC-MS; conditions: Mg2+, pH 7.5, 35 °C (general assay); acceptor not given
T7 construct: gene Chst11; recombinant
From the text: sulfotransferase kinetics, HPLC-MS on chondroitin 4-O-sulfotransferase (C4ST)

| Km [1] | SMILES | polyphosphate kinase assay, HPLC (PPK2^s.e) | polyphosphate kinase assay, HPLC (PPK2A^p.a) | polyphosphate kinase assay, HPLC (PPK2C^p.a) | polyphosphate kinase assay, HPLC (PPK2^d.r) | polyphosphate kinase assay, HPLC (PPK2^r.p) | polyphosphate kinase assay, HPLC (PPK2B^p.a) |
| --- | --- | --- | --- | --- | --- | --- | --- |
| – | Nc1ncnc2c1ncn2[C@@H]1O[C@H](COP(=O)(O)O)[C@@H](O)[C@H]1O [AMP] | PPK2^s.e (from S. epidermidis) showed the highest enzymatic activity and preferentially utilized AMP | all the other polyphosphate kinases exhibited both AMP and ADP phosphorylase activities | all the other polyphosphate kinases exhibited both AMP and ADP phosphorylase activities | all the other polyphosphate kinases exhibited both AMP and ADP phosphorylase activities | all the other polyphosphate kinases exhibited both AMP and ADP phosphorylase activities | all the other polyphosphate kinases exhibited both AMP and ADP phosphorylase activities |
| 1270 ± 140 µM | Nc1ncnc2c1ncn2[C@@H]1O[C@H](COP(=O)(O)OS(=O)(=O)O)[C@@H](OP(=O)(O)O)[C@H]1O [PAPS] | – | – | – | – | – | – |
| – | Nc1ncnc2c1ncn2[C@@H]1O[C@H](COP(=O)(O)OP(=O)(O)O)[C@@H](O)[C@H]1O [ADP] | all the other polyphosphate kinases exhibited both AMP and ADP phosphorylase activities | – | – | – | – | – |
